Measurements from patent publication US20260022143A1, “Cyclic Peptide Inhibitors of IL-23” (JANSSEN PHARMACEUTICA NV, priority 2022, published 2026).
Starred links: 1 amine or outer side, 2 acyl side, 3 side chain; linkers in the order of their positions; H or OH if unused. Positions of bridges follow the written chain, without caps; N, C: chain ends. Non-standard residues stand in square brackets, D forms with d. Residues, ends and D or L forms follow the SMILES beside them. Groups on a side chain read outwards from the residue. *: point of attachment. X33 = C[N+](C)(C)CCCCc1cn(-c2ccc(C[C@H](N[*:1])C(=O)[*:2])cc2)nn1; Me3N+(CH2)2O(CH2)2O(CH2)2CO = C[N+](C)(C)CCOCCOCCC(=O)*; CH2CH2OCH2CH2OCH2CH2NMe3+ = C[N+](C)(C)CCOCCOCC*; Trp(7-Me) = Cc1cccc2c(C[C@H](N)C(=O)O)c[nH]c12; γGlu = O=C(O)[C@H](CCC(=O)[*:2])N[*:1]; 2Nal = N[C@@H](Cc1ccc2ccccc2c1)C(=O)O; AEF = NCCOc1ccc(C[C@H](N)C(=O)O)cc1; dNMeY = CN[C@H](Cc1ccc(O)cc1)C(=O)O; X10 = C[N+](C)(C)C[C@H](CC(=O)O)N*; 3Pal = N[C@@H](Cc1cccnc1)C(=O)O; Myristoyl = CCCCCCCCCCCCCC(=O)*; Lys(Me) = CNCCCC[C@H](N)C(=O)O; Pen = CC(C)(S)[C@H](N)C(=O)O; Suc = O=C(CCC(=O)[*:2])[*:1]; αMeK = C[C@](N)(CCCCN)C(=O)O; Thp = NC1(C(=O)O)CCOCC1; X3 = C[N+](C)(C)CCCCC*; AEEA = NCCOCCOCC(=O)O; Sar = CNCC(=O)O; X2 = CNCC*

Experiment: Exposed Polar Surface Area (EPSA)
Type: physicochemical
Conditions: SFC on Chirex 3014 column; sample 1 mM DMSO stock; read-out: EPSA
Summary of the method: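 SFC retention on a Chirex 3014 (S-valine/(R)-1-(α-naphthyl)ethylamine) column at 35 °C, 4 mL/min, 14 MPa outlet, 5–60% methanol/20 mM ammonium formate gradient in CO2. Retention times converted to EPSA (Å²) via linear calibration with 8 standards; samples from 1 mM DMSO stock, run in duplicate.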

Structure (SMILES)	EPSA [A^2]
CC(=O)N[C@@H]1C(=O)N[C@@H](CC(=O)N(C)C)C(=O)N[C@@H]([C@@H](C)O)C(=O)N[C@@H](Cc2c[nH]c3c(C)cccc23)C(=O)N[C@@H](CCCCN(C)C(C)=O)C(=O)N[C@H](C(=O)N[C@@H](Cc2ccc(OCCOCCOCC[N+](C)(C)C)cc2)C(=O)N[C@@H](Cc2ccc3ccccc3c2)C(=O)NC2(C(=O)N[C@@H](CCCCN(C)C(=O)CCOCCOCC[N+](C)(C)C)C(=O)N[C@@H](CC(N)=O)C(=O)N[C@@H](Cc3cccnc3)C(=O)N(C)CC(=O)N(C)C)CCOCC2)C(C)(C)SSC1(C)C [compound 218, MeCO-Pen(3)-N(N(Me)2)-T-7MeW-K(NMeAc)-Pen(3)-APEG3F-2Nal-THP-K(NMePEG3a)-N-3Pya-Sar-CON(Me)2] (Ac-[Pen]D(NMe2)T[Trp(7-Me)][Lys(Me)](Ac)[Pen]Y(CH2CH2OCH2CH2OCH2CH2NMe3+)[2Nal][Thp][Lys(Me)](Me3N+(CH2)2O(CH2)2O(CH2)2CO)N[3Pal][Sar]-NMe2; disulfide 1-6)	136
CC(=O)NCCCC[C@@H]1NC(=O)[C@H](Cc2c[nH]c3c(C)cccc23)NC(=O)[C@H]([C@@H](C)O)NC(=O)[C@H](CC(N)=O)NC(=O)[C@@H](NC(=O)[C@@H](CCCCNC(=O)CCC(=O)N[C@@H](CC(=O)O)C[N+](C)(C)C)NC(C)=O)C(C)(C)SSC(C)(C)[C@@H](C(=O)N[C@@H](Cc2ccc(OCCN)cc2)C(=O)N[C@@H](Cc2ccc3ccccc3c2)C(=O)NC2(C(=O)N[C@@H](CCCCNC(C)=O)C(=O)N[C@@H](CC(N)=O)C(=O)N[C@@H](Cc3cccnc3)C(=O)N(C)CC(N)=O)CCOCC2)NC1=O [compound 108] (Ac-[dK]([Suc-X10])[Pen]NT[Trp(7-Me)]K(Ac)[Pen][AEF][2Nal][Thp]K(Ac)N[3Pal][Sar]-NH2; disulfide 2-7)	173
CC(=O)NCCCC[C@@H]1NC(=O)[C@H](Cc2c[nH]c3c(C)cccc23)NC(=O)[C@H]([C@@H](C)O)NC(=O)[C@H](CC(N)=O)NC(=O)[C@@H](NC(=O)[C@@H](CCCNC(=N)N)NC(C)=O)C(C)(C)SSC(C)(C)[C@@H](C(=O)N[C@@H](Cc2ccc(OCCN)cc2)C(=O)N[C@@H](Cc2ccc3ccccc3c2)C(=O)N[C@@](C)(CCCCN)C(=O)N[C@@H](CCC(=O)O)C(=O)N[C@@H](CC(N)=O)C(=O)N[C@@H](Cc2c[nH]cn2)C(=O)N(C)[C@H](Cc2ccc(O)cc2)C(N)=O)NC1=O [compound 9, MeCO-r-Pen(3)-N-T-7MeW-K(Ac)-Pen(3)-AEF-2Nal-aMeK-E-N-H-NMeDTyr-CONH2] (Ac-[dR][Pen]NT[Trp(7-Me)]K(Ac)[Pen][AEF][2Nal][αMeK]ENH[dNMeY]-NH2; disulfide 2-7)	187
CC(=O)N(C)CCCC[C@@H]1NC(=O)[C@H](Cc2c[nH]c3c(C)cccc23)NC(=O)[C@H]([C@@H](C)O)NC(=O)[C@H](CC(=O)N(C)C)NC(=O)[C@@H](NC(=O)CCOCCOCC[N+](C)(C)C)C(C)(C)SSC(C)(C)[C@@H](C(=O)N[C@@H](Cc2ccc(OCCOCCOCC[N+](C)(C)C)cc2)C(=O)N[C@@H](Cc2ccc3ccccc3c2)C(=O)NC2(C(=O)N[C@@H](CCCCN(C)C(C)=O)C(=O)N[C@@H](CC(N)=O)C(=O)N[C@@H](Cc3cccnc3)C(=O)N(C)CC(N)=O)CCOCC2)NC1=O [compound 363, cPEG3aCO-Pen(3)-N(N(Me)2)-T-7MeW-K(NMeAc)-Pen(3)-APEG3F-2Nal-THP-K(NMeAc)-N-3Pya-Sar-CONH2] ({Me3N+(CH2)2O(CH2)2O(CH2)2CO}-[Pen]D(NMe2)T[Trp(7-Me)][Lys(Me)](Ac)[Pen]Y(CH2CH2OCH2CH2OCH2CH2NMe3+)[2Nal][Thp][Lys(Me)](Ac)N[3Pal][Sar]-NH2; disulfide 1-6)	155
CC(=O)NCCCC[C@@H]1NC(=O)[C@H](Cc2c[nH]c3c(C)cccc23)NC(=O)[C@H]([C@@H](C)O)NC(=O)[C@H](CC(N)=O)NC(=O)[C@@H](NC(C)=O)C(C)(C)SSC(C)(C)[C@@H](C(=O)N[C@@H](Cc2ccc(OCCN)cc2)C(=O)N[C@@H](Cc2ccc3ccccc3c2)C(=O)N[C@@](C)(CCCCN)C(=O)N[C@@H](CCCCNC(C)=O)C(=O)N[C@@H](CC(N)=O)C(=O)N[C@H](Cc2c[nH]cn2)C(=O)N(C)[C@H](Cc2ccc(O)cc2)C(N)=O)NC1=O [compound 26, MeCO-Pen(3)-N-T-7MeW-K(Ac)-Pen(3)-AEF-2Nal-aMeK-K(Ac)-N-h-NMeDTyr-CONH2] (Ac-[Pen]NT[Trp(7-Me)]K(Ac)[Pen][AEF][2Nal][αMeK]K(Ac)N[dH][dNMeY]-NH2; disulfide 1-6 (inferred))	148
CCCCCCCCCCCCCC(=O)N[C@@H](CCC(=O)NCCOCCOCC(=O)NCCOCCOCC(=O)NCCCC[C@@H]1NC(=O)[C@@H](NC(=O)[C@@H](CCCCNC(=O)COCCOCCNC(=O)COCCOCCNC(=O)CC[C@H](NC(=O)CCCCCCCCCCCCC)C(=O)O)NC(=O)CCOCCOCC[N+](C)(C)C)C(C)(C)SSC(C)(C)[C@@H](C(=O)N[C@@H](Cc2ccc(OCCCCC[N+](C)(C)C)cc2)C(=O)N[C@@H](Cc2ccc3ccccc3c2)C(=O)NC2(C(=O)N[C@@H](CCCCN(C)C(C)=O)C(=O)N[C@@H](CC(N)=O)C(=O)N[C@@H](Cc3cccnc3)C(=O)N(C)CC(=O)N(C)C)CCOCC2)NC(=O)[C@H](CCCCN(C)C(C)=O)NC(=O)[C@H](Cc2c[nH]c3c(C)cccc23)NC(=O)[C@H]([C@@H](C)O)NC1=O)C(=O)O [compound 381, cPEG3aCO-k(PEG2PEG2gEC14)-Pen(3)-K(PEG2PEG2gEC14)-T-7MeW-K(NMeAc)-Pen(3)-TMAPF-2Nal-THP-K(NMeAc)-N-3Pya-Sar-CON(Me)2] ({Me3N+(CH2)2O(CH2)2O(CH2)2CO}-[dK]([AEEA-AEEA-γGlu-Myristoyl])[Pen]K([AEEA-AEEA-γGlu-Myristoyl])T[Trp(7-Me)][Lys(Me)](Ac)[Pen]Y(X3)[2Nal][Thp][Lys(Me)](Ac)N[3Pal][Sar]-NMe2; disulfide 2-7)	171
CC(=O)N[C@H](CCCNC(=N)N)C(=O)N[C@@H]1C(=O)N[C@@H](CC(=O)N(C)C)C(=O)N[C@@H]([C@@H](C)O)C(=O)N[C@@H](Cc2c[nH]c3c(C)cccc23)C(=O)N[C@@H](CCCCN(C)C(C)=O)C(=O)N[C@H](C(=O)N[C@@H](Cc2ccc(OCCCCC[N+](C)(C)C)cc2)C(=O)N[C@@H](Cc2ccc3ccccc3c2)C(=O)NC2(C(=O)N[C@@H](CCCCN(C)C(C)=O)C(=O)N[C@@H](CC(N)=O)C(=O)N[C@@H](Cc3cccnc3)C(=O)N(C)CC(=O)N(C)C)CCOCC2)C(C)(C)SSC1(C)C [compound 345, MeCO-r-Pen(3)-N(N(Me)2)-T-7MeW-K(NMeAc)-Pen(3)-TMAPF-2Nal-THP-K(NMeAc)-N-3Pya-Sar-CON(Me)2] (Ac-[dR][Pen]D(NMe2)T[Trp(7-Me)][Lys(Me)](Ac)[Pen]Y(X3)[2Nal][Thp][Lys(Me)](Ac)N[3Pal][Sar]-NMe2; disulfide 2-7)	162
CNCCOc1ccc(C[C@H](NC(=O)[C@H]2NC(=O)[C@H](CCCCNC(C)=O)NC(=O)[C@H](Cc3c[nH]c4c(C)cccc34)NC(=O)[C@H]([C@@H](C)O)NC(=O)[C@H](CC(N)=O)NC(=O)[C@@H](NC(C)=O)C(C)(C)SSC2(C)C)C(=O)N[C@@H](Cc2ccc3ccccc3c2)C(=O)NC2(C(=O)N[C@@H](CCCCNC(C)=O)C(=O)N[C@@H](CC(N)=O)C(=O)N[C@@H](Cc3cccnc3)C(=O)N(C)CC(N)=O)CCOCC2)cc1 [compound 47] (Ac-[Pen]NT[Trp(7-Me)]K(Ac)[Pen]Y(X2)[2Nal][Thp]K(Ac)N[3Pal][Sar]-NH2; disulfide 1-6 (inferred))	154
CC(=O)NCCCC[C@@H]1NC(=O)[C@H](Cc2c[nH]c3c(C)cccc23)NC(=O)[C@H]([C@@H](C)O)NC(=O)[C@H](CC(N)=O)NC(=O)[C@@H](NC(=O)CCOCCOCC[N+](C)(C)C)C(C)(C)SSC(C)(C)[C@@H](C(=O)N[C@@H](Cc2ccc(OCCNC(=N)N)cc2)C(=O)N[C@@H](Cc2ccc3ccccc3c2)C(=O)NC2(C(=O)N[C@@H](CCC(=O)O)C(=O)N[C@@H](CC(N)=O)C(=O)N[C@@H](Cc3cncc(C)c3)C(=O)N(C)CC(N)=O)CCOCC2)NC1=O [compound 514, cPEG3aCO-Pen(3)-N-T-7MeW-K(Ac)-Pen(3)-AEF(G)-2Nal-THP-E-N-5MePyridinAla-Sar-CONH2]	248
CC(=O)N(C)CCCC[C@@H]1NC(=O)[C@H](Cc2c[nH]c3c(C)cccc23)NC(=O)[C@H](CC(C)C)NC(=O)[C@H](CC(=O)N(C)C)NC(=O)[C@@H](NC(=O)CCOCCOCC[N+](C)(C)C)C(C)(C)SSC(C)(C)[C@@H](C(=O)N[C@@H](Cc2ccc(OCCCCC[N+](C)(C)C)cc2)C(=O)N[C@@H](Cc2ccc3ccccc3c2)C(=O)NC2(C(=O)N[C@@H](CCCCN(C)C(C)=O)C(=O)N[C@@H](CC(N)=O)C(=O)N[C@@H](Cc3cccnc3)C(=O)N(C)CC(=O)N(C)C)CCOCC2)NC1=O [compound 493, cPEG3aCO-Pen(3)-N(N(Me)2)-L-7MeW-K(NMeAc)-Pen(3)-TMAPF-2Nal-THP-K(NMeAc)-N-3Pya-Sar-CON(Me)2] ({Me3N+(CH2)2O(CH2)2O(CH2)2CO}-[Pen]D(NMe2)L[Trp(7-Me)][Lys(Me)](Ac)[Pen]Y(X3)[2Nal][Thp][Lys(Me)](Ac)N[3Pal][Sar]-NMe2; disulfide 1-6)	132
CC(=O)NCCCC[C@@H]1NC(=O)[C@H](Cc2c[nH]c3c(C)cccc23)NC(=O)[C@H]([C@@H](C)O)NC(=O)[C@H](CC(N)=O)NC(=O)[C@@H](NC(C)=O)C(C)(C)SSC(C)(C)[C@@H](C(=O)N[C@@H](Cc2ccc(-n3cc(CCCC[N+](C)(C)C)nn3)cc2)C(=O)N[C@@H](Cc2ccc3ccccc3c2)C(=O)NC2(C(=O)N[C@@H](CCC(=O)O)C(=O)N[C@@H](CC(N)=O)C(=O)N[C@@H](Cc3cccnc3)C(=O)N(C)CC(N)=O)CCOCC2)NC1=O [compound 442] (Ac-[Pen]NT[Trp(7-Me)]K(Ac)[Pen][X33][2Nal][Thp]EN[3Pal][Sar]-NH2; disulfide 1-6 (inferred))	169
